The values that follow come from patent US20100080785A1, “DRIED FORMULATIONS” (Zymes, LLC, priority 2008, published 2010).

Data set [1] can be described thus: stability of the solution on heating to 50-55° C. It is filed as physicochemical.
Data set [2] can be described thus: stability and shelf life at ambient conditions. In kind it is physicochemical. The settings on record: ubiquinol. From the text: By contrast, the dry formulations of ubiquinol disclosed herein remains white for weeks at ambient conditions.
By contrast, the dry formulations of omega-3 fatty acid disclosed herein remains odorless for weeks at ambient conditions.

As to “polyoxyethanyl tocopheryl sebacate [PTS]”, in data set [1], the “degradation on heating without pH adjustment” value is “decomposes and undergoes hydrolysis”.

In the case of `COc1c(O)c(C)c(C/C=C(\C)CC/C=C(\C)CC/C=C(\C)CC/C=C(\C)CC/C=C(\C)CC/C=C(\C)CC/C=C(\C)CC/C=C(\C)CC/C=C(\C)CCC=C(C)C)c(O)c1OC` [bulk ubiquinol, ubiquinol], the “oxidation / colour on storage” value in data set [2] is “gradually oxidizes and develops a yellow hue”.
